# Key:
# AIF = assay: Western blot of AIF in nuclear extracts of NMDA/tPA treated neurons; type: cell-based, mouse; details: for AIF nuclear translocation in the presence of tPA (NMDA/tPA injury): effect of APC or caspase inhibitor
# Procedure: (§1) Primary neuronal cultures were prepared from fetal C57BU6J mice as we have previously described^23. Cultures were maintained in serum-free NEUROBASAL medium plus B27 supplement (Gibco BRL, Rockville, Md.) in a humidified 5% CO2 incubator at 37° C. for 14 days before 3 hr to 24 hr treatment with tPA (20 μg/ml) alone, NMDA (25 μM)/5 μM glycine, or tPA plus NMDA. Ac-DEVD-CHO (50 μM), z-IETD-fmk (20 μM), or z-LEHD-fmk (5 μM) was applied 3 hr prior to tPA/NMDA treatment. Mouse recombinant APC (20 nM) was added 30 min before tPA/NMDA treatment.
# (§2) Whole cellular extracts, nuclear proteins, or cell membrane fractions were prepared as we have previously described^23. The relative abundance of each protein was determined by scanning densitometry using β-actin as an internal control. Data from multiple Western blots (n=3-5) were averaged for statistical analysis.
# caspase-9 [1] = assay: Caspase-9 activity in cortical neuron lysate; type: cell-based, mouse
# Procedure: as §1
# (§3) BEC or cortical neuron lysate was incubated at 37° C. with caspase-3 (DEVD-pNA), caspase-8 (IETD-pNA) (ApoAlert caspase assay kit; Clontech, Palo Alto, Calif.), or caspase-9 (Ac-LEHD-pNA; Chemicon; Temecula, Calif.) substrate. Substrate hydrolysis was determined as absorbance change at 405 nm in a microplate reader^23. Enzymatic activity was expressed in arbitrary units per mg of protein.
# human BEC [2] = assay: tPA/hypoxia in human BEC: apoptosis (TUNEL); type: cell-based
# Procedure: (§4) Primary human BEC were isolated from rapid autopsies from neurologically normal young individuals after trauma and cultured as we have previously described^20. Cells were maintained in serum-free Dulbeco's Modified Eagle Medium and exposed for 1 hr to 16 hr to tPA (20 μg/ml) under normoxic conditions (20% oxygen, 5 mM glucose), hypoxia (<2% oxygen, no glucose), or to tPA plus hypoxia. Hypoxia was induced using an anaerobic chamber (Form a Scientific, Holbrook, N.Y.)^20. The levels of O2 were monitored by O2 Fyrite (Form a Scientific). z-IETD-fmk (10 μM) or z-LEHD-fmk (15 μM) was applied 2 hr prior to tPA/hypoxia treatment. Human APC (10 nM to 600 nM) was added at the time of tPA/hypoxia treatment. Caspase-3, -8 or -9 activity was determined in the presence of 400 nM APC.
# (§5) Cell injury in BEC was detected by the release of LDH (LDH assay, Sigma). The Hoechst dye (Hoechst 33,342, Sigma) and in situ terminal deoxynucleotidyl transferase-mediated digoxigenin-dUTP nick-end labeling (TUNEL) (Phoenix Flow Systems, San Diego, Calif.) assays were performed on acetone-fixed BEC or paraformaldexyde-fixed neurons. Images were visualized using a Nikon TE2000-U microscope.
# caspase-8 [3] = assay: Caspase-8 activity in BEC lysate; type: cell-based, human; details: tPA plus hypoxia, at 1 hr; remained elevated over 16 hr vs hypoxia alone
# Procedure: as §4, §3
# mouse stroke model = assay: In vivo stroke model (45 min MCA occlusion/24 hr reperfusion); details: tPA 10 mg/kg iv
# Procedure: Protocols were approved by the Animal Care Committee at the University of Rochester using National Institutes of Health guidelines. Vehicle, tPA (10 mg/kg, 10% bolus/90% infusion), or tPA plus mouse recombinant APC (0.02 mg/kg to 1 mg/kg, 50% bolus/50% infusion) were administered via the femoral vein using separate intravenous lines and our previously described mouse stroke model^19,20 modified to 45 min MCA occlusion/24 hr reperfusion. tPA was infused during the last 10 min of MCA occlusion and for 20 min into reperfusion. APC was infused either simultaneously with tPA, after tPA infusion, or before tPA infusion. The dose of tPA used here has been frequently used in rodents and is considered to be equivalent to the therapeutic dose in humans^12,13,44,50. CBF was monitored by laser Doppler flowmetry (Transonic Systems)^19. Arterial blood gasses were measured^19. Neurological examinations were performed at 24 hr and scored: no neurological deficit (O), failure to extend left forepaw fully (1), turning to left (2), circling to left (3), unable to walk spontaneously (4), or stroke-related death (5). Neuropathological analysis was performed at 24 hr. Unfixed 1-mm coronal brain slices at the level of optic chiasm were incubated in 2% triphenyltetrazolium chloride in phosphate buffer (pH 7.4). Brain injury, infarct, and edema volumes were determined as previously described^19,20. Fibrin deposition was quantified by Western blotting with anti-fibrin II antibody (1:500, NYB-T2G1; Accurate Chemical Scientific Corp.)^19,20,30 and leukocytes were stained with CD11b antibody (1:250, DAKO Corp.)^19,20. Hemoglobin was determined by a spectrophotometric assay using Drabkin's reagent (Sigma) as we have previously described^19.
# caspase-3 [4] = assay: Caspase-3 activity in cortical neuron lysate; type: cell-based, mouse
# Procedure: as §1, §3
# MMP-9 = assay: MMP gelatin zymography of BEC conditioned medium; type: cell-based, human; details: tPA 20 μg/ml, hypoxic BEC, 4 hr
# Procedure: The conditioned medium from BEC exposed to tPA (20 μg/ml) or hypoxia for 4 hr, in the absence or presence of human APC (50 nM to 1,000 nM), was analyzed by gelatin zymography as previously described^11. […] MMP-9 activity was quantified as fold increase compared with normoxic controls.
# mouse cortical neurons = assay: tPA/NMDA-induced apoptosis in neurons; type: cell-based
# Procedure: as §1, §5
# [5] = target: T1, NR1 or the NR2A subunit of the NMDA receptor (Mus musculus, UniProt P35436+P35438); assay: Western blot of NR1 and NR2A subunits in membrane fractions after tPA; type: cell-based; details: 24 h after treatment with tPA
# T1 construct: Western blot analysis of NR1 and NR2A subunits in membrane fractions 24 h after treatment with tPA; endogenous in cells; host or cells: primary cortical neurons from fetal C57BL/6J mice
# Procedure: as §1, §2
# p53, Bax, Bcl-2 = assay: Western blot of p53, Bcl-2 and Bax in NMDA-treated neurons; type: cell-based, mouse; details: tPA plus NMDA vs NMDA
# Procedure: as §1, §2
# caspase-9 [6] = assay: Caspase-9 activity in BEC lysate; type: cell-based, human; details: tPA 20 μg/ml plus hypoxia
# Procedure: as §4, §3
# caspase-8 [7] = assay: Caspase-8 activity in cortical neuron lysate; type: cell-based, mouse; details: for tPA-induced increase in caspase-8 activation: tPA/NMDA treated neurons, APC 20 nM, z-IETD-fmk 20 μM, z-LEHD-fmk 5 μM
# Procedure: as §1, §3
# human BEC [8] = assay: tPA/hypoxia in human BEC: cell injury by LDH release; type: cell-based; details: for LDH release into the medium from ischemic BEC: tPA 20 μg/ml plus hypoxia/aglycemia
# Procedure: as §4, §5
# caspase-3 [9] = assay: Caspase-3 activity in BEC lysate; type: cell-based, human; details: for increase in caspase-3 activity compared to hypoxia alone: tPA plus hypoxia; for inhibition in caspase-3 activation in hypoxic BEC: absence of tPA; for inhibition in caspase-3 activation in hypoxic BEC / inhibition of caspase-3 activation in hypoxic BEC: z-IETD-fmk 10 μM, z-LEHD-fmk 15 μM applied 2 hr prior; for inhibition of caspase-3 activation in hypoxic BEC: presence of tPA
# Procedure: as §4, §3
substance,measurement,setting,value
Ac-DEVD-CHO,AIF nuclear translocation in the presence of tPA (NMDA/tPA injury),AIF,blocked
"tPA: Human recombinant tPA (alteplase, Genentech); in some in vitro studies human recombinant tPA from Sigma","caspase-9 activation, tPA/NMDA compared to NMDA alone",caspase-9 [1]; tPA 20 μg/ml plus NMDA 25 μM,did not alter
same,activation of caspase-9,"caspase-9 [1]; tPA alone, no NMDA",did not affect
same,number of TUNEL-positive hypoxic BEC,"human BEC [2]; tPA plus hypoxia, 4 hr, 60% for hypoxia alone",100%
same,activation of caspase-8 in ischemic BEC,caspase-8 [3],early and sharp increase
same,improvement of post-ischemic cerebral blood flow (CBF) vs vehicle,mouse stroke model,35%
same,increase in the level of hemoglobin in the ischemic hemisphere,mouse stroke model,greater than 3.0 fold
same,ischemic brain fibrin deposition,mouse stroke model,background level
same,increase of volume of edema compared to controls,mouse stroke model; 24 hr reperfusion,155%
same,increase of volume of infarction compared to controls,mouse stroke model; 24 hr reperfusion,75%
same,volume of cerebral injury compared to controls,mouse stroke model; 24 hr reperfusion,almost doubled
same,motor neurological score,"mouse stroke model; 24 hr, controls 2.3, scale 0-5",3.5
same,increase of brain accumulation of leukocytes,mouse stroke model; CD11b-positive leukocytes,about 65%
same,mice with substantial hemorrhage,mouse stroke model; MCA stroke model,6/6
same,caspase-3 activation relative to NMDA alone,caspase-3 [4]; tPA 20 μg/ml plus NMDA 25 μM,increased
same,activation of caspase-3,"caspase-3 [4]; tPA alone, no NMDA",did not affect
same,potentiation of hypoxia-induced MMP-9 activation,MMP-9,about 2.0 fold
same,number of apoptotic neurons,"mouse cortical neurons; tPA 20 μg/ml, 24 hr after exposure to NMDA, vs NMDA alone",doubles
same,effect on neuronal cells,"mouse cortical neurons; tPA alone, no NMDA",did not affect
same,"proteolytic effect on the NMDA receptor (NR1, NR2A subunit)",[5],failed to cleave
same,"NMDA-mediated increases in p53 and Bax expression, decrease in Bcl-2 expression","p53, Bax, Bcl-2",did not affect
same,caspase-9 activity in hypoxic BEC relative to hypoxia alone,caspase-9 [6],did not produce a significant increase
same,"caspase-8 in neurons, tPA/NMDA compared to NMDA alone",caspase-8 [7]; tPA 20 μg/ml plus NMDA 25 μM,robust activation
same,activation of caspase-8,"caspase-8 [7]; tPA alone, no NMDA",did not affect
same,LDH release into the medium from ischemic BEC,"human BEC [8]; 2 hr, background values in the absence of tPA",50%
same,LDH release into the medium from ischemic BEC,"human BEC [8]; 4 hr, 57% in the absence of tPA",95%
same,LDH release from normoxic BEC,"human BEC [8]; tPA alone, normoxia",did not affect
same,increase of nuclear translocation of AIF in the presence of NMDA,AIF; tPA plus NMDA vs NMDA,50%
same,increase in caspase-3 activity compared to hypoxia alone,caspase-3 [9]; at 4 hr,2.8 fold
same,increase in caspase-3 activity compared to hypoxia alone,caspase-3 [9]; within 16 hr,> 3.0 fold
z-IETD-fmk,tPA-induced apoptosis in ischemic BEC,human BEC [2]; discussion summary,abolished
same,tPA-induced apoptosis in NMDA-treated neurons,mouse cortical neurons; discussion summary,abolished
same,tPA-induced increase in caspase-8 activation,caspase-8 [7],abolished
same,AIF nuclear translocation in the presence of tPA (NMDA/tPA injury),AIF,blocked
same,inhibition in caspase-3 activation in hypoxic BEC,caspase-3 [9],less than 15%
same,inhibition of caspase-3 activation in hypoxic BEC,caspase-3 [9],greater than 95%
z-LEHD-fmk,reduction of caspase-3 activation in cells treated with NMDA alone,"caspase-3 [4]; NMDA alone, no tPA, z-LEHD-fmk 5 μM",greater than 80%
same,tPA-induced increase in caspase-8 activation,caspase-8 [7],without effect
same,AIF nuclear translocation in the presence of tPA (NMDA/tPA injury),AIF,much less effective
same,inhibition in caspase-3 activation in hypoxic BEC,caspase-3 [9],greater than 85%
same,inhibition of caspase-3 activation in hypoxic BEC,caspase-3 [9],only slightly inhibited

# Source: patent US20080305100A1, “Activated Protein C Inhibits Undesirable Effects of Plasminogen Activator in the Brain” (priority 2004, published 2008)
